{"source": "patent US11274124B2", "about": "“Tubulysin analogues as anticancer agents and payloads for antibody-drug conjugates and methods of treatment therewith” (William Marsh Rice University, priority 2017, dated 2022)", "key": {"[1]": {"system": "MES SA (uterine sarcoma cell line)", "assay": "In vitro cytotoxicity assay (CellTiter-Glo, 72 hours), MES SA", "format": "cell-based", "details": "Homo sapiens, MES-SA, 72 h, read-out: MES SA, IC50 Value in nM"}, "[2]": {"system": "HEK 293T (human embryonic kidney cancer cell line)", "assay": "In vitro cytotoxicity assay (CellTiter-Glo, 72 hours), HEK 293T", "format": "cell-based", "details": "Homo sapiens, HEK-293T, 72 h, read-out: HEK 293T, IC50 Value in nM"}, "[3]": {"system": "MES SA DX (MES SA cell line with marked multi-drug resistance)", "assay": "In vitro cytotoxicity assay (CellTiter-Glo, 72 hours), MES SA DX", "details": "Homo sapiens, MES-SA, 72 h, read-out: MES SA DX, IC50 Value in nM"}}}
{"smiles": "CCOC(=O)[C@@H](C)C[C@H](Cc1ccccc1)NC(=O)c1csc([C@@H](C[C@H](C(C)C)N(C)C(=O)[C@@H](NC(=O)[C@H]2C[C@H](O)CCN2C)C(C)C)OC(C)=O)n1", "note": "[Tb76, Ethyl (2S,4R)-4-[({2-[(1R,3R)-1-acetoxy-3-{[(2S)-2-({[(2R,4R)-4-hydroxy-1-methylpiperidin-2-yl]-carbonyl}amino)-3-methylbutanoyl](methyl)amino}-4-methylpentyl]-1,3-thiazol-4-yl}carbonyl)-amino]-2-methyl-5-phenylpentanoate]", "values": [{"measurement": "IC50", "setting": "[1]", "result": 4.88, "unit": "nM"}, {"measurement": "IC50", "setting": "[2]", "result": 1.37, "unit": "nM"}, {"measurement": "IC50", "setting": "[3]", "result": "> 2500", "unit": "nM"}]}
{"smiles": "COC(=O)[C@@H](C)C[C@H](Cc1ccccc1)NC(=O)c1csc([C@@H](C[C@H](C(C)C)N(C)C(=O)[C@@H](NC(=O)[C@H]2CCCCN2C)C(C(F)(F)F)C(F)(F)F)OC(C)=O)n1", "note": "[Tb79, Methyl (2S,4R)-4-[({2-[(1R,3R)-1-acetoxy-4-methyl-3-{methyl[(2S)-4,4,4-trifluoro-2-({[(2R)-1-meth-ylpiperidin-2-yl]carbonyl}amino)-3-(trifluoromethyl)butanoyl]amino}pentyl]-1,3-thiazol-4-yl}carbonyl)amino]-2-methyl-5-phenylpentanoate]", "values": [{"measurement": "IC50", "setting": "[1]", "result": 39.1, "unit": "nM"}, {"measurement": "IC50", "setting": "[2]", "result": 36.4, "unit": "nM"}, {"measurement": "IC50", "setting": "[3]", "result": "> 1000", "unit": "nM"}]}
{"smiles": "COC(=O)[C@@H](C)C[C@H](Cc1ccccc1)NC(=O)c1csc([C@H](O)C[C@H](C(C)C)N(C)C(=O)[C@@H](NC(=O)[C@H]2CCCCN2C)C(C(F)(F)F)C(F)(F)F)n1", "note": "[Tb80, Methyl (2S,4R)-4-[({2-[(1R,3R)-1-hydroxy-4-methyl-3-{methyl[(2S)-4,4,4-trifluoro-2-({[(2R)-1-methylpiperidin-2-yl]carbonyl}amino)-3-(trifluoromethyl)butanoyl]amino}pentyl]-1,3-thiazol-4-yl}-carbonyl)amino]-2-methyl-5-phenylpentanoate]", "values": [{"measurement": "IC50", "setting": "[1]", "result": "> 1000", "unit": "nM"}, {"measurement": "IC50", "setting": "[2]", "result": "> 1000", "unit": "nM"}, {"measurement": "IC50", "setting": "[3]", "result": "> 1000", "unit": "nM"}]}
{"smiles": "COC(=O)[C@@H](C)C[C@H](Cc1ccccc1)NC(=O)c1csc([C@@H](C[C@H](C(C)C)N(C)C(=O)[C@H](CC(F)(F)F)NC(=O)[C@H]2CCCCN2C)OC(C)=O)n1", "note": "[Tb81, Methyl (2S,4R)-4-[({2-[(1R,3R)-1-acetoxy-4-methyl-3-{methyl[(2S)-4,4,4-trifluoro-2-({[(2R)-1-meth-ylpiperidin-2-yl]carbonyl}amino)butanoyl]amino}pentyl]-1,3-thiazol-4-yl}carbonyl)amino]-2-methyl-5-phenylpentanoate]", "values": [{"measurement": "IC50", "setting": "[1]", "result": 5.84, "unit": "nM"}, {"measurement": "IC50", "setting": "[2]", "result": 4.98, "unit": "nM"}, {"measurement": "IC50", "setting": "[3]", "result": "> 1000", "unit": "nM"}]}
{"smiles": "COC(=O)[C@@H](C)C[C@H](Cc1ccccc1)NC(=O)c1csc([C@@H](C[C@H](C(C)C)N(C)C(=O)[C@H](CC(F)(F)F)NC(=O)[C@H]2CCCN2C)OC(C)=O)n1", "note": "[Tb82, Methyl (2S,4R)-4-[({2-[(1R,3R)-1-acetoxy-4-methyl-3-{methyl[(2S)-4,4,4-trifluoro-2-({[(2R)-1-methylpyrrolidin-2-yl]carbonyl}amino)butanoyl]amino}pentyl]-1,3-thiazol-4-yl}carbonyl)amino]-2-methyl-5-phenylpentanoate]", "values": [{"measurement": "IC50", "setting": "[1]", "result": 47.5, "unit": "nM"}, {"measurement": "IC50", "setting": "[2]", "result": 51.6, "unit": "nM"}, {"measurement": "IC50", "setting": "[3]", "result": "> 1000", "unit": "nM"}]}
{"smiles": "CC(C)[C@@H](C[C@@H](O)c1nc(C(=O)N[C@@H](Cc2ccccc2)C[C@H](C)C(=O)O)cs1)N(C)C(=O)[C@H](CC(F)(F)F)NC(=O)[C@H]1CCCCN1C", "note": "[Tb83, (2S,4R)-4-[({2-[(1R,3R)-1-Hydroxy-4-methyl-3-{methyl[(2S)-4,4,4-trifluoro-2-({[(2R)-1-methyl-piperidin-2-yl]carbonyl}amino)butanoyl]amino}pentyl]-1,3-thiazol-4-yl}carbonyl)amino]-2-methyl-5-phenylpentanoic acid]", "values": [{"measurement": "IC50", "setting": "[1]", "result": "> 1000", "unit": "nM"}, {"measurement": "IC50", "setting": "[2]", "result": "> 1000", "unit": "nM"}, {"measurement": "IC50", "setting": "[3]", "result": "> 1000", "unit": "nM"}]}
{"smiles": "CC(C)[C@@H](C[C@@H](O)c1nc(C(=O)N[C@@H](Cc2ccccc2)C[C@H](C)C(=O)O)cs1)N(C)C(=O)[C@H](CC(F)(F)F)NC(=O)[C@H]1CCCN1C", "note": "[Tb84, (2S,4R)-4-[({2-[(1R,3R)-1-Hydroxy-4-methyl-3-{methyl[(2S)-4,4,4-trifluoro-2-({[(2R)-1-methyl-pyrrolidin-2-yl]carbonyl}amino)butanoyl]amino}pentyl]-1,3-thiazol-4-yl}carbonyl)amino]-2-meth-yl-5-phenylpentanoic acid]", "values": [{"measurement": "IC50", "setting": "[1]", "result": "> 1000", "unit": "nM"}, {"measurement": "IC50", "setting": "[2]", "result": "> 1000", "unit": "nM"}, {"measurement": "IC50", "setting": "[3]", "result": "> 1000", "unit": "nM"}]}
{"smiles": "COC(=O)[C@@H](C)C[C@H](Cc1ccccc1)NC(=O)c1csc([C@@H](C[C@H](C(C)C)N(C)C(=O)[C@H](NC(=O)[C@H]2CCCCN2C)C(C(F)(F)F)C(F)(F)F)OC(C)=O)n1", "note": "[Tb85, Methyl(2S,4R)-4-[({2-[(1R,3R)-1-acetoxy-4-methyl-3-{methyl[(2R)-4,4,4-trifluoro-2-({[(2R)-1-meth-ylpiperidin-2-yl]carbonyl}amino)-3-(trifluoromethyl)butanoyl]amino}pentyl]-1,3-thiazol-4-yl}-carbonyl)amino]-2-methyl-5-phenylpentanoate]", "values": [{"measurement": "IC50", "setting": "[1]", "result": 37.3, "unit": "nM"}, {"measurement": "IC50", "setting": "[2]", "result": 32.4, "unit": "nM"}, {"measurement": "IC50", "setting": "[3]", "result": "> 1000", "unit": "nM"}]}
{"smiles": "COC(=O)[C@@H](C)C[C@H](Cc1ccccc1)NC(=O)c1csc([C@@H](C[C@H](C(C)C)N(C)C(=O)[C@H](NC(=O)[C@H]2CCCN2C)C(C(F)(F)F)C(F)(F)F)OC(C)=O)n1", "note": "[Tb86, Methyl (2S,4R)-4-[({2-[(1R,3R)-1-acetoxy-4-methyl-3-{methyl[(2R)-4,4,4-trifluoro-2-({[(2R)-1-meth-ylpyrrolidin-2-yl]carbonyl}amino)-3-(trifluoromethyl)butanoyl]amino}pentyl]-1,3-thiazol-4-yl}car-bonyl)amino]-2-methyl-5-phenylpentanoate]", "values": [{"measurement": "IC50", "setting": "[1]", "result": "> 1000", "unit": "nM"}, {"measurement": "IC50", "setting": "[2]", "result": "> 1000", "unit": "nM"}, {"measurement": "IC50", "setting": "[3]", "result": "> 1000", "unit": "nM"}]}
{"smiles": "CC(=O)O[C@H](C[C@H](C(C)C)N(C)C(=O)[C@H](NC(=O)[C@H]1CCCCN1C)C(C(F)(F)F)C(F)(F)F)c1nc(C(=O)N[C@@H](Cc2ccccc2)C[C@H](C)C(=O)O)cs1", "note": "[Tb87, (2S,4R)-4-[({2-[(1R,3R)-1-Acetoxy-4-methyl-3-{methyl[(2R)-4,4,4-trifluoro-2-({[(2R)-1-methyl-piperidin-2-yl]carbonyl}amino)-3-(trifluoromethyl)butanoyl]amino}pentyl]-1,3-thiazol-4-yl}carbonyl)amino]-2-methyl-5-phenylpentanoic acid]", "values": [{"measurement": "IC50", "setting": "[1]", "result": 234, "unit": "nM"}, {"measurement": "IC50", "setting": "[2]", "result": "> 1000", "unit": "nM"}, {"measurement": "IC50", "setting": "[3]", "result": "> 1000", "unit": "nM"}]}
{"smiles": "COC(=O)[C@@H](C)C[C@H](Cc1ccccc1)NC(=O)c1csc([C@@H](C[C@H](C(C)C)N(C)C(=O)[C@H](C)NC(=O)[C@H]2CCCCN2C)OC(C)=O)n1", "note": "[Tb89, Methyl (2S,4R)-4-[({2-[(1R,3R)-1-acetoxy-4-methyl-3-{methyl[(2S)-2-({[(2R)-1-methylpiperidin-2-yl]carbonyl}amino)propanoyl]amino}pentyl]-1,3-thiazol-4-yl}carbonyl)amino]-2-methyl-5-phenylpentanoate]", "values": [{"measurement": "IC50", "setting": "[1]", "result": "> 1000", "unit": "nM"}, {"measurement": "IC50", "setting": "[2]", "result": "> 1000", "unit": "nM"}, {"measurement": "IC50", "setting": "[3]", "result": "> 1000", "unit": "nM"}]}
{"smiles": "COC(=O)[C@@H](C)C[C@H](Cc1ccccc1)NC(=O)c1csc([C@@H](C[C@H](C(C)C)N(C)C(=O)[C@H](C)NC(=O)[C@H]2CCCN2C)OC(C)=O)n1", "note": "[Tb90, Methyl (2S,4R)-4-[({2-[(1R,3R)-1-acetoxy-4-methyl-3-{methyl[(2S)-2-({[(2R)-1-methylpyrrolidin-2-yl]carbonyl}amino)propanoyl]amino}pentyl]-1,3-thiazol-4-yl}carbonyl)amino]-2-methyl-5-phenylpentanoate]", "values": [{"measurement": "IC50", "setting": "[1]", "result": "> 1000", "unit": "nM"}, {"measurement": "IC50", "setting": "[2]", "result": 636, "unit": "nM"}, {"measurement": "IC50", "setting": "[3]", "result": "> 1000", "unit": "nM"}]}
